{
  "source": "patent US4452814A",
  "about": "“Nitrosourea derivatives” (priority 1981, dated 1984)",
  "key": {"[1]": {"system": "experimental leukemia and tumors", "conditions": "wide variety of experimental leukemia and tumors; cited from earlier work"}, "[2]": {"test": "Acute toxicity (LD50) in BDF1 male mice, i.p. or i.v., Litchfield-Wilcoxon's method", "assay_type": "in vivo", "conditions": "BDF1 male mice about 6 weeks old, observed after 21 days", "source_text": "The nitrosourea derivatives of formulae (I), (II) and (III) according to this invention are further characterized by their low toxicity. Thus, acute toxicity represented by LD50 of some typical compounds of formula (I), when administered intraperitoneally (i.p.) or intravenously (i.v.) to BDF1 male mice aged about 6-weeks old and observed after the lapse of 21 days according to Litchfield-Wilcoxon's method, is as follows: […]"}, "Leukemia L 1210 cells": {"system": "Leukemia L 1210 cells", "test": "Antileukemic activity on Leukemia L 1210 in mice (i.p. inoculated, compound i.p.)", "assay_type": "in vivo, Male BDF1 mice", "conditions": "for Mean survival days, treated: control 7.7", "experimental": "Antileukemic activity of a typical nitrosourea derivative of formula (I) according to this invention was tested on Leukemia L 1210 in mice, details of which are given below.\nMale BDF1 mice, aged about 7 weeks old and weighing 22±1 g were used in groups of five animals for each test.\nLeukemia L 1210 cells were inoculated intraperitoneally in a concentration of 1×10^6 cells/0.05 ml/mouse.\nThe test compound was dissolved in a physiological salt solution to give a series of solutions in predetermined concentrations and 0.1 ml of the each solution was administered intraperitoneally to each mouse once a day from the 24th hour after the tumor cell inoculation for 3 consecutive days. The antileukemic activity of the test compound was assessed by mean survival days and percentage increase in life-span. The percentage increase in life-span (ILS) was calculated as follows: [formula] T: The mean survival days of the treated animals C: The mean survival days of the untreated animals\nThe control test for this purpose was carried out in the same way as that used for the test compound except that 0.1 ml of the physiological salt solution was administered in place of the solution of the test compound."}, "[3]": {"conditions": "0.5 mg/kg i.p. once a day for 3 days"}, "[4]": {"conditions": "1 mg/kg i.p. once a day for 3 days"}, "[5]": {"conditions": "2 mg/kg i.p. once a day for 3 days"}, "[6]": {"conditions": "8 mg/kg i.p. once a day for 3 days"}, "[7]": {"conditions": "16 mg/kg i.p. once a day for 3 days"}},
  "data": [
    {"smiles": "O=NN(CCCl)C(=O)N[C@H]1[C@H](O)CCC[C@@H]1O", "note": "[DONU, 1-(2-chloroethyl)-3-(1,3/2N-dihydroxycyclohexyl)-1-nitrosourea]", "values": [
      {"measurement": "antitumor activity, in words", "setting": "[1]", "result": "broad spectrum of antitumor activity"}
    ]},
    {"smiles": "O=NN(CCCl)C(=O)N[C@@H]1O[C@H](CO)[C@@H](O)[C@H](O)[C@H]1O", "note": "[GANU, 1-(2-chloroethyl)-3-(β-D-glucopyranosyl)-1-nitrosourea]", "values": [
      {"measurement": "antitumor activity, in words", "setting": "[1]", "result": "broad spectrum of antitumor activity"}
    ]},
    {"smiles": "NC(=O)C1CCCN1C(=O)N(CCCl)N=O", "note": "(stereo not drawn) [N-[N'-(2-chloroethyl)-N'-nitrosocarbamoyl]-proline amide]", "values": [
      {"measurement": "LD50", "setting": "[2]; i.p.", "result": 219.6, "unit": "mg/kg"},
      {"measurement": "LD50", "setting": "[2]; i.v.", "result": 195.4, "unit": "mg/kg"}
    ]},
    {"smiles": "NC(=O)CNC(=O)N(CCCl)N=O", "note": "[N-[N'-(2-chloroethyl)-N'-nitrosocarbamoyl]glycine amide]", "values": [
      {"measurement": "ILS (percentage increase in life-span)", "setting": "Leukemia L 1210 cells; [3]", "result": 32.5, "unit": "%"},
      {"measurement": "Mean survival days, treated", "setting": "Leukemia L 1210 cells; [3]", "result": 10.2, "unit": "days"},
      {"measurement": "ILS (percentage increase in life-span)", "setting": "Leukemia L 1210 cells; [4]", "result": 37.7, "unit": "%"},
      {"measurement": "Mean survival days, treated", "setting": "Leukemia L 1210 cells; [4]", "result": 10.6, "unit": "days"},
      {"measurement": "ILS (percentage increase in life-span)", "setting": "Leukemia L 1210 cells; [5]", "result": 81.8, "unit": "%"},
      {"measurement": "Mean survival days, treated", "setting": "Leukemia L 1210 cells; [5]", "result": 14.0, "unit": "days"},
      {"measurement": "ILS (percentage increase in life-span)", "setting": "Leukemia L 1210 cells; [6]", "result": "> 679.2", "unit": "%"},
      {"measurement": "Mean survival days, treated", "setting": "Leukemia L 1210 cells; [6]", "result": "> 60.0", "unit": "days"},
      {"measurement": "ILS (percentage increase in life-span)", "setting": "Leukemia L 1210 cells; [7]", "result": "> 679.2", "unit": "%"},
      {"measurement": "Mean survival days, treated", "setting": "Leukemia L 1210 cells; [7]", "result": "> 60.0", "unit": "days"},
      {"measurement": "LD50", "setting": "[2]; i.v.", "result": 22.4, "unit": "mg/kg"},
      {"measurement": "LD50 at 504 h", "setting": "[2]; mouse, in vivo, ip", "result": 21.2, "unit": "mg/kg"}
    ]},
    {"smiles": "CN(CC(N)=O)C(=O)N(CCCl)N=O", "note": "[N-[N'-(2-chloroethyl)-N'-nitrosocarbamoyl]sarcosine amide]", "values": [
      {"measurement": "LD50", "setting": "[2]; i.p.", "result": 392.0, "unit": "mg/kg"},
      {"measurement": "LD50", "setting": "[2]; i.v.", "result": 426.6, "unit": "mg/kg"}
    ]}
  ]
}
